The target in test [1] is B-Raf delta1-415 (Homo sapiens, UniProt P15056). Kind of test: B-Raf kinase inhibition (MAPH filter plate, 33P-ATP, MEK1 substrate). Conditions: read-out: Biochemical IC50 B-Raf. A digest of the protocol: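 Radiometric filter-binding assay with B-Raf delta1-415 at a level giving 50% turnover, MEK1 substrate and 33P-ATP (12.5 μCi/ml) in 20 mM Mops pH 7.0 with Mg/Mn, 1 h at room temperature. Inhibitor dilution series from 10 μM; EDTA-stopped reactions captured on phosphocellulose filters, counted by scintillation for IC50.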
B-Raf delta1-415, sequence (P15056 416-766): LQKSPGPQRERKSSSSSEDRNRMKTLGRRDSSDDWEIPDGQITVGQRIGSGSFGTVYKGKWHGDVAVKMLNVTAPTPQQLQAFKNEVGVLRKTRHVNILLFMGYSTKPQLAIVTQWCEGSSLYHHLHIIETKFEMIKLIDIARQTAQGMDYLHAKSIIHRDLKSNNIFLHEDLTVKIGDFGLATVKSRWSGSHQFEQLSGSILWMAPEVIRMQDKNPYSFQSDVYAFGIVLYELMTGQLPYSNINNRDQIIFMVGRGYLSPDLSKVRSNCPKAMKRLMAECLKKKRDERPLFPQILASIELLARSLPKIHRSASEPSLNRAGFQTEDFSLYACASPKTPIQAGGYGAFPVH

The subject of test [2] is HT-29 tumor cells. In words: Anti-proliferative activity, SRB assay. The format is cell-based, human. Particulars: Homo sapiens, HT-29, 72 h, 72 hours exposure, read-out: CELLULAR IC50 HT-29. The essentials: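 Cells at 3,000-15,000/well, plated 24 h before compound, exposed to a concentration range for 72 hours. Proliferation measured by SRB staining after cold TCA fixation, absorbance at OD570; IC50 estimated from % inhibition versus DMSO-treated cells.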

`COn1c(=O)c(-c2c(Cl)cccc2Cl)cc2cnc(Nc3ccc(CN4CCCC4)cc3)nc21` [Compound 101, 6-(2,6-Dichlorophenyl)-8-methoxy-2-(4-pyrrolidinomethylphenyl)-amino-pyrido[2,3-d]pyrimidin-7-one]: the figures for the IC50 in test [1] and in test [2] were less than 100 nM and less than 1000 nM, respectively.
On the same counts, the results for `COn1c(=O)c(-c2c(F)cccc2Cl)cc2cnc(Nc3ccc(N4CCNCC4)c(F)c3)nc21` [Compound 211, 6-(2-Chloro-6-fluorophenyl)-2-(3-fluoro-4-piperazinophenyl)-amino-8-methoxy-pyrido[2,3-d]pyrimidin-7-one] are less than 100 nM and less than 1000 nM.
For the compound `CC(C)On1c(=O)c(-c2ccccc2Cl)cc2cnc(Nc3ccccc3)nc21` [Compound 65], the IC50 in test [1] and in test [2] was more than 10000 nM throughout.
Take `COC(=O)c1cc(Nc2ncc3cc(-c4c(C)cccc4C)c(=O)n(OC)c3n2)cn1C` [Compound 79]: the IC50 is less than 500 nM in test [1] and less than 1000 nM in test [2].
In the same order, the values of `COn1c(=O)c(-c2c(F)cccc2Cl)cc2cnc(Nc3cc(C(=O)N(C)CCO)n(C)c3)nc21` [Compound 193, 6-(2-Chloro-6-fluorophenyl)-2-(5-N-(2-hydroxyethyl)-N-methyl-aminocarbonyl-1-methyl-pyrrol-3-yl)-amino-8-methoxy-pyrido[2,3-d]pyrimidin-7-one] are less than 100 nM and less than 1000 nM.
Take `O=c1c(-c2c(Cl)cccc2Cl)cc2cnc(Nc3ccccc3)nc2n1OCC1CCOCC1` [Compound 186, 6-(2,6-Dichlorophenyl)-2-phenylamino-8-(tetrahydropyran-4-ylmethyl)oxy-pyrido[2,3-d]pyrimidin-7-one]: the IC50 in test [1] was less than 500 nM; in test [2] it was less than 1000 nM.
Turning to `COCCN(C)C(=O)c1cc(Nc2ncc3cc(-c4c(Cl)cccc4Cl)c(=O)n(OC)c3n2)cn1C` [Compound 154, 6-(2,6-Dichlorophenyl)-8-methoxy-2-(5-N-(2-methoxyethyl)-N-methyl-aminocarbonyl-1-methyl-pyrrol-3-yl)-amino-pyrido[2,3-d]pyrimidin-7-one], the IC50 was less than 500 nM in test [1] and less than 1000 nM in test [2].
Regarding `COn1c(=O)c(-c2c(Cl)cccc2Cl)cc2cnc(Nc3ccc(S(=O)(=O)CCCO)cc3)nc21` [Compound 160, 6-(2,6-Dichlorophenyl)-2-(4-(3-hydroxypropyl)sulfonylphenyl)-amino-8-methoxy-pyrido[2,3-d]pyrimidin-7-one], the IC50 in test [1] is less than 100 nM; in test [2], less than 1000 nM.
On the same counts, the results for `COCCN(C)C(=O)c1cc(Nc2ncc3cc(-c4c(Cl)cccc4Cl)c(=O)n(OCC4CCOCC4)c3n2)cn1C` [Compound 177, 6-(2,6-dichlorophenyl)-2-(5-N-(2-methoxyethyl)-N-methyl-aminocarbonyl-1-methyl-pyrrol-3-yl)-amino-8-(tetrahydropyran-4-ylmethyl)oxy-pyrido[2,3-d]pyrimidin-7-one] are less than 500 nM and less than 1000 nM.
In the same order, the values of `Nc1ncc2cc(-c3c(Cl)cccc3Cl)c(=O)n(OCc3cccnc3)c2n1` [Compound 232, 2-Amino-6-(2,6-dichlorophenyl)-8-(pyrid-3-yl)methoxy-pyrido[2,3-d]pyrimidin-7-one] are less than 1000 nM and less than 10000 nM.
In the same order, the values of `COn1c(=O)c(-c2c(F)cccc2Cl)cc2cnc(Nc3ccc(N4CCNCC4)c(C#N)c3)nc21` [Compound 213, 6-(2-Chloro-6-fluorophenyl)-8-methoxy-2-(3-cyano-4-piperazinophenyl)-amino-pyrido[2,3-d]pyrimidin-7-one] are less than 100 nM and less than 1000 nM.
In the case of `O=c1c(-c2c(F)cccc2Cl)cc2cnc(Nc3ccc(N4CCNCC4)cc3)nc2n1OCC1CCOCC1` [Compound 215], the half-maximal inhibitory concentration (IC50) in test [1] is less than 100 nM; in test [2], less than 1000 nM.
In the same order, the values of `Cn1cc(Nc2ncc3cc(-c4c(Cl)cccc4Cl)c(=O)n(OC[C@@H](O)CO)c3n2)cc1C(=O)NCCN1CCCC1` [Compound 103, 6-(2,6-Dichlorophenyl)-8-(2-(S)-2,3-dihydroxypropyl)oxy-2-(5-(2-pyrrolidinoethyl)aminocarbonyl-1-methyl-pyrrol-3-yl)-amino-pyrido[2,3-d]pyrimidin-7-one] are less than 500 nM and less than 1000 nM.
In the same order, the values of `O=c1ccc2cnc(Nc3ccc(N4CCOCC4)cc3)nc2n1OC1CCCC1` [Compound 226] are more than 1000 nM and less than 10000 nM.
With `COn1c(=O)c(-c2c(Cl)cccc2Cl)cc2cnc(Nc3ccc(CN4CC[C@H](O)C4)cc3)nc21` [Compound 180, 6-(2,6-Dichlorophenyl)-2-(4-(3-(S)-hydroxypyrrolidinomethyl)phenyl)-amino-8-methoxy-pyrido[2,3-d]pyrimidin-7-one], the IC50 in test [1] was less than 100 nM; in test [2], less than 1000 nM.
On the same counts, the results for `COn1c(=O)c(-c2c(F)cccc2Cl)cc2cnc(Nc3ccc(N4CCNCC4)cc3)nc21` [Compound 198, 6-(2-Chloro-6-fluorophenyl)-8-methoxy-2-(4-piperazinophenyl)-amino-pyrido[2,3-d]pyrimidin-7-one] are less than 100 nM and less than 1000 nM.
On the same counts, the results for `COn1c(=O)c(-c2c(Cl)cccc2Cl)cc2cnc(Nc3ccc(OCCN4CC[C@H](O)C4)cc3)nc21` [Compound 92, 6-(2,6-Dichlorophenyl)-2-(4-(2-(3-(S)-hydroxypyrrolidino)ethyl)oxyphenyl)amino-8-methoxy-pyrido[2,3-d]pyrimidin-7-one] are less than 100 nM and less than 1000 nM.
In the same order, the values of `CCN(CC)S(=O)(=O)c1cccc(Nc2ncc3cc(-c4c(Cl)cccc4Cl)c(=O)n(OC)c3n2)c1` [Compound 123, 6-(2,6-Dichlorophenyl)-2-(3-diethylaminosulfonylphenyl)-amino-8-methoxy-pyrido[2,3-d]pyrimidin-7-one] are more than 1000 nM and less than 10000 nM.
In the case of `O=c1c(-c2c(F)cccc2Cl)cc2cnc(Nc3ccccc3)nc2n1OCC1CCOCC1` [Compound 164, 6-(2-Chloro-6-fluorophenyl)-2-phenylamino-8-(tetrahydropyran-4-ylmethyl)oxy-pyrido[2,3-d]pyrimidin-7-one], the IC50 is more than 1000 nM in test [1] and less than 1000 nM in test [2].
On the same counts, the results for `COCCN(C)C(=O)c1cc(Nc2ncc3cc(-c4c(F)cccc4Cl)c(=O)n(OC)c3n2)cn1C` [Compound 194, 6-(2-Chloro-6-fluorophenyl)-2-(5-N-(2-methoxyethyl)-N-methyl-aminocarbonyl-1-methyl-pyrrol-3-yl)-amino-8-methoxy-pyrido[2,3-d]pyrimidin-7-one] are less than 100 nM and less than 1000 nM.
On the same counts, the results for `COn1c(=O)c(-c2c(Cl)cccc2Cl)cc2cnc(Nc3ccc(CN4CCC4)cc3)nc21` [Compound 201, 2-(4-(1-azacyclobutyl)methylphenyl)-amino-6-(2,6-dichlorophenyl)-8-methoxy-pyrido[2,3-d]pyrimidin-7-one] are less than 500 nM and less than 1000 nM.
In the same order, the values of `COn1c(=O)c(-c2c(Cl)cccc2Cl)cc2cnc(Nc3cccc(CS(=O)(=O)NCCO)c3)nc21` [Compound 156, 6-(2,6-Dichlorophenyl)-2-(3-((2-hydroxyethylamino)sulfonylmethyl)phenyl)-amino-8-methoxy-pyrido[2,3-d]pyrimidin-7-one] are less than 500 nM and less than 1000 nM.

For the origin of these results see patent publication US8518958B2, “Pyrido [2,3-D] pyrimidines and their use as kinase inhibitors” (Forma Therapeutics, Inc., priority 2006, dated 2013).
